Tests used:
Format in all cases: in vivo
[1] = test system: ryegrass, Italian (Italian ryegrass, Lolium multiflorum); test: Test A preemergence; details: Lolium multiflorum, pre-emergence, 240 h
Procedure, shortened: (§1)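 Compounds were formulated in a non-phytotoxic solvent mixture with surfactant and applied as a preemergence directed soil spray after seeding, or sprayed postemergence over plants 2 to 10 cm tall at the one- to two-leaf stage. Evaluation after about 10 d compared treated with untreated controls, using a scale from 0 (no effect) to 100 (complete control).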

[2] = test system: ragweed (common ragweed, Ambrosia elatior); test: Test A preemergence; details: Ambrosia artemisiifolia, pre-emergence, 240 h
Procedure, shortened: as §1

[3] = test system: giant foxtail (Setaria faberii); test: Test A preemergence; details: Setaria faberi, pre-emergence, 240 h
Procedure, shortened: as §1

[4] = test system: barnyardgrass (Echinochloa crus-galli); test: Test A preemergence; details: Echinochloa crus-galli, pre-emergence, 240 h
Procedure, shortened: as §1

[5] = test system: pigweed (Amaranthus retroflexus); test: Test A preemergence; details: Amaranthus retroflexus, pre-emergence, 240 h
Kochia (Kochia scoparia) [6] = test: Test A preemergence; details: Bassia scoparia, pre-emergence, 240 h
Procedure, shortened: as §1

[7] = test system: ryegrass, Italian (Italian ryegrass, Lolium multiflorum); test: Test A postemergence; details: Lolium multiflorum, post-emergence, 240 h, 125 g ai/ha, Postemergence; visual injury after approximately 10 d; 0 to 100 scale where 0 is no effect and 100 is complete control; read-out: Plant response rating, Ryegrass, Italian
Procedure, shortened: as §1

[8] = test system: ragweed (common ragweed, Ambrosia elatior); test: Test A postemergence; details: Ambrosia artemisiifolia, post-emergence, 240 h, 125 g ai/ha, Postemergence; visual injury after approximately 10 d; 0 to 100 scale where 0 is no effect and 100 is complete control; read-out: Plant response rating, Ragweed
Procedure, shortened: as §1

[9] = test system: Galium (catchweed bedstraw, Galium aparine); test: Test A postemergence; details: Galium, post-emergence, 240 h, 125 g ai/ha, Postemergence; visual injury after approximately 10 d; 0 to 100 scale where 0 is no effect and 100 is complete control; read-out: Plant response rating, Galium
Procedure, shortened: as §1

[10] = test system: blackgrass (Alopecurus myosuroides); test: Test A postemergence; details: Alopecurus myosuroides, post-emergence, 240 h, 125 g ai/ha, Postemergence; visual injury after approximately 10 d; 0 to 100 scale where 0 is no effect and 100 is complete control; read-out: Plant response rating, Blackgrass
Procedure, shortened: as §1

corn (Zea mays) = test: Test A postemergence; details: Zea mays, post-emergence, 240 h, 125 g ai/ha, Postemergence; visual injury after approximately 10 d; 0 to 100 scale where 0 is no effect and 100 is complete control
Procedure, shortened: as §1

[11] = test system: giant foxtail (Setaria faberii); test: Test A postemergence; details: Setaria faberi, post-emergence, 240 h, 125 g ai/ha, Postemergence; visual injury after approximately 10 d; 0 to 100 scale where 0 is no effect and 100 is complete control; read-out: Plant response rating, Foxtail, Giant
Procedure, shortened: as §1

[12] = test system: barnyardgrass (Echinochloa crus-galli); test: Test A postemergence; details: Echinochloa crus-galli, post-emergence, 240 h, 125 g ai/ha, Postemergence; visual injury after approximately 10 d; 0 to 100 scale where 0 is no effect and 100 is complete control; read-out: Plant response rating, Barnyardgrass
Procedure, shortened: as §1

[13] = test system: pigweed (Amaranthus retroflexus); test: Test A postemergence; details: Amaranthus retroflexus, post-emergence, 240 h, 125 g ai/ha, Postemergence; visual injury after approximately 10 d; 0 to 100 scale where 0 is no effect and 100 is complete control; read-out: Plant response rating, Pigweed
Procedure, shortened: as §1

Kochia (Kochia scoparia) [14] = test: Test A postemergence; details: Bassia scoparia, post-emergence, 240 h, 125 g ai/ha, Postemergence; visual injury after approximately 10 d; 0 to 100 scale where 0 is no effect and 100 is complete control; read-out: Plant response rating, Kochia
Procedure, shortened: as §1

[15] = test system: wheat (Triticum aestivum); test: Test A postemergence; details: Triticum aestivum, post-emergence, 240 h, 125 g ai/ha, Postemergence; visual injury after approximately 10 d; 0 to 100 scale where 0 is no effect and 100 is complete control; read-out: Plant response rating, Wheat
Procedure, shortened: as §1

rice (Oryra sativa) = test: Test B flooded paddy test; details: Oryza sativa, Flood, 250 g ai/ha; scale of 0 to 100 where 0 is no effect and 100 is complete control; read-out: Rice plant response rating
Procedure, shortened: (§2)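 2-leaf plants; pots flooded 3 cm over soil; cpd added to paddy water; depth held; greenhouse 13–15 d; visual rating vs controls, 0 = no effect, 100 = complete control.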

[16] = test system: sedge, umbrella (small-flower umbrella sedge, Cyperus difformis); test: Test B flooded paddy test; details: Cyperus difformis, Flood, 250 g ai/ha; scale of 0 to 100 where 0 is no effect and 100 is complete control; read-out: Sedge, Umbrella plant response rating
Procedure, shortened: as §2

[17] = test system: barnyardgrass (Echinochloa crus-galli); test: Test B flooded paddy test; details: Echinochloa crus-galli, Flood, 250 g ai/ha; scale of 0 to 100 where 0 is no effect and 100 is complete control; read-out: Barnyardgrass plant response rating
Procedure, shortened: as §2

[18] = test system: ducksalad (Heteranthera limosa); test: Test B flooded paddy test; details: Heteranthera limosa, Flood, 250 g ai/ha; scale of 0 to 100 where 0 is no effect and 100 is complete control; read-out: Ducksalad plant response rating
Procedure, shortened: as §2

CCOc1cccc([C@H]2CNC(=O)[C@@H]2C(=O)Nc2ccccc2F)c1 [Compound 949]
pest or weed control at 125 g/ha ([1]; 125 g ai/ha, Preemergence, visual injury rating after approximately 10 d, read-out: Ryegrass, Italian plant response rating (0 to 100 scale, 0 is no effect, 100 is complete control)): 0% | pest or weed control at 500 g/ha ([1]; 500 g ai/ha, preemergence, visual injury rating about 10 d after treatment, 0 to 100 scale (0 no effect, 100 complete control), read-out: Ryegrass, Italian plant response rating): 0% | pest or weed control at 125 g/ha ([2]; 125 g ai/ha, Preemergence, visual injury rating after approximately 10 d, read-out: Ragweed plant response rating (0 to 100 scale, 0 is no effect, 100 is complete control)): 0% | pest or weed control at 500 g/ha ([2]; 500 g ai/ha, preemergence, visual injury rating about 10 d after treatment, 0 to 100 scale (0 no effect, 100 complete control), read-out: Ragweed plant response rating): 0% | pest or weed control at 125 g/ha ([3]; 125 g ai/ha, Preemergence, visual injury rating after approximately 10 d, read-out: Foxtail, Giant plant response rating (0 to 100 scale, 0 is no effect, 100 is complete control)): 60% | pest or weed control at 500 g/ha ([3]; 500 g ai/ha, preemergence, visual injury rating about 10 d after treatment, 0 to 100 scale (0 no effect, 100 complete control), read-out: Foxtail, Giant plant response rating): 70% | pest or weed control at 125 g/ha ([4]; 125 g ai/ha, Preemergence, visual injury rating after approximately 10 d, read-out: Barnyardgrass plant response rating (0 to 100 scale, 0 is no effect, 100 is complete control)): 70% | pest or weed control at 500 g/ha ([4]; 500 g ai/ha, preemergence, visual injury rating about 10 d after treatment, 0 to 100 scale (0 no effect, 100 complete control), read-out: Barnyardgrass plant response rating): 100% | pest or weed control at 125 g/ha ([5]; 125 g ai/ha, Preemergence, visual injury rating after approximately 10 d, read-out: Pigweed plant response rating (0 to 100 scale, 0 is no effect, 100 is complete control)): 0% | pest or weed control at 500 g/ha ([5]; 500 g ai/ha, preemergence, visual injury rating about 10 d after treatment, 0 to 100 scale (0 no effect, 100 complete control), read-out: Pigweed plant response rating): 0% | pest or weed control at 125 g/ha (Kochia (Kochia scoparia) [6]; 125 g ai/ha, Preemergence, visual injury rating after approximately 10 d, read-out: Kochia plant response rating (0 to 100 scale, 0 is no effect, 100 is complete control)): 20% | pest or weed control at 500 g/ha (Kochia (Kochia scoparia) [6]; 500 g ai/ha, preemergence, visual injury rating about 10 d after treatment, 0 to 100 scale (0 no effect, 100 complete control), read-out: Kochia plant response rating): 50% | pest or weed control at 125 g/ha [7]: 0% | pest or weed control at 125 g/ha [8]: 0% | pest or weed control at 125 g/ha [9]: 0% | pest or weed control at 125 g/ha [10]: 0% | Corn plant response rating (crop injury, 0 = no effect, 100 = complete kill) at 125 g/ha (corn (Zea mays)): 0% | pest or weed control at 125 g/ha [11]: 20% | pest or weed control at 125 g/ha [12]: 90% | pest or weed control at 125 g/ha [13]: 0% | pest or weed control at 125 g/ha (Kochia (Kochia scoparia) [14]): 0% | plant injury at 125 g/ha [15]: 0% | pest or weed control at 250 g/ha (rice (Oryra sativa)): 15% | pest or weed control at 250 g/ha [16]: 0% | pest or weed control at 250 g/ha [17]: 30% | pest or weed control at 250 g/ha [18]: 100%

Source: US12077503B2, “Substituted cyclic amides and their use as herbicides” (FMC CORPORATION, priority 2015, dated 2024)
